Experimental data: patent US11564920B2, “5-heteroaryl-1H-pyrazol-3-amine derivative” (Sumitomo Pharma Co., Ltd., priority 2020, dated 2023)

Columns and labels:
ES-2 cells = assay: Cell growth suppression experiment; type: cell-based; conditions: for IC50: Homo sapiens, 48 h, cultured for 2 days, read-out: IC50 (cell growth suppression, ranking); for cell growth suppression effect (in words): compared with prexasertib
Protocol: ES-2 cells were obtained from the American Type Culture Collection (ATCC). These cells were cultured at 37° C. in the presence of 5% CO2 in a 10% fetal bovine serum, […] penicillin/streptomycin containing McCoy's 5a medium.
500 cells were seeded for each well in a 384-well plate, and the evaluated compound was added so that the final concentration of DMSO would be 0.1% to culture the cells for 2 days. After completion of the culture, the cell viability rate was calculated using CellTiter-Glo® 3D Reagent (Promega, G968B).

CHK1 = CHK1 (Homo sapiens (Human), UniProt O14757); assay: CHK1 inhibitory activity test (IMAP TR-FRET); type: biochemical; conditions: for inhibition at 0.0001 µM: read-out: CHK1 inhibition % at 0.1 nM; for effect of suppressing CHK1 activity (in words): compared with prexasertib
Chain of CHK1 (O14757 whole entry): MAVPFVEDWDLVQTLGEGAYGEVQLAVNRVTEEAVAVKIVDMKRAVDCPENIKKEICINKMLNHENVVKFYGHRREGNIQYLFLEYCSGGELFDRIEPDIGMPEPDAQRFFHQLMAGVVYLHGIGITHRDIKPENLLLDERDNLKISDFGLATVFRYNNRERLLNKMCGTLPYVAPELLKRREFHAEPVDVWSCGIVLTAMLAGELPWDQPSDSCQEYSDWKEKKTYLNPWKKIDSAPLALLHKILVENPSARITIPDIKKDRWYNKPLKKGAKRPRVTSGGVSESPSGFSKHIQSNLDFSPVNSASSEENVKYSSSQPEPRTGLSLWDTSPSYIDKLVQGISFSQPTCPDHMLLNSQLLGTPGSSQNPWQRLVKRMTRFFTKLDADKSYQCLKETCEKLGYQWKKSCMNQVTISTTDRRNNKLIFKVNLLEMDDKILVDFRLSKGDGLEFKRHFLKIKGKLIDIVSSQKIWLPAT
Protocol: IMAP TR-FRET Screening Express Kit (R8160) was obtained from Molecular Devices. […] FAM-PKAtide (R7255, Molecular Devices) and FAM-Phospho-PKAtide (R7304, Molecular Devices) were admixed after dilution, and calibration standard systems for phosphorylation levels from 0 to 100% were created. 5 μL of a compound dissolved in a 0.4% DMSO solution was added to a 384 well plate. A compound study group to which 5 μL of each of CHK1, CHK1tide, and ATP was added, and a standard group to which 20 μL of standard was added were created, and subjected to a kinase reaction for 3 hours at 30° C. Subsequently, 60 μL of Binding Reagent (80% Buffer A, 20% Buffer B, 1:600 Binding Reagent, 1:400 Tb-Donor) was added for a binding reaction for 2 hours at room temperature.

SMILES	IC50 (ES-2 cells) [nM]	cell growth suppression effect (in words) (ES-2 cells)	inhibition at 0.0001 µM (CHK1) [%]	effect of suppressing CHK1 activity (in words) (CHK1)	IC50 (CHK1) [nM]
CN[C@@H]1CC[C@@H](Oc2cncc(OC)c2-c2cc(Nc3cnc(C#N)cn3)n[nH]2)C1 [Example 35, 5-{[5-(3-methoxy-5-{[(1R,3R)-3-(methylamino)cyclopentyl]oxy}pyridin-4-yl)-1H-pyrazol-3-yl]amino}pyrazine-2-carbonitrile]	< 30	excellent cell growth suppression effect that is equivalent to that of prexasertib	< 5		
COc1cncc(OC[C@@H](O)CN)c1-c1cc(Nc2cnc(C#N)cn2)n[nH]1 [Example 14, 5-[(5-{3-[(2S)-3-amino-2-hydroxypropoxy]-5-methoxypyridin-4-yl}-1H-pyrazol-3-yl)amino]pyrazine-2-carbonitrile]	300 to 1000		30	more potent effect of suppressing CHK1 activity than prexasertib	
COc1ccnc(OCCCN)c1-c1cc(Nc2cnc(Cl)cn2)n[nH]1 [Example 15, N-{5-[2-(3-aminopropoxy)-4-methoxypyridin-3-yl]-1H-pyrazol-3-yl}-5-chloropyrazin-2-amine]	< 30	excellent cell growth suppression effect that is equivalent to that of prexasertib	29	more potent effect of suppressing CHK1 activity than prexasertib	
COc1cncc(OCCCN)c1-c1cc(Nc2cnc(C#N)cn2)n[nH]1 [Example 3, 5-({5-[3-(3-aminopropoxy)-5-methoxypyridin-4-yl]-1H-pyrazol-3-yl}amino)pyrazine-2-carbonitrile]	< 30	excellent cell growth suppression effect that is equivalent to that of prexasertib	28	more potent effect of suppressing CHK1 activity than prexasertib	
COc1cncc(O[C@@H]2CCC[C@H](N)C2)c1-c1cc(Nc2cnc(C#N)cn2)n[nH]1 [Example 19, 5-{[5-(3-{[(1R,3S)-3-aminocyclohexyl]oxy}-5-methoxypyridin-4-yl)-1H-pyrazol-3-yl]amino}pyrazine-2-carbonitrile]	< 30	excellent cell growth suppression effect that is equivalent to that of prexasertib	20	more potent effect of suppressing CHK1 activity than prexasertib	
COc1cncc(OCC2(C(F)F)CNC2)c1-c1cc(Nc2cnc(C#N)cn2)n[nH]1 [Example 26, 5-{[5-(3-{[3-(difluoromethyl)azetidin-3-yl]methoxy}-5-methoxypyridin-4-yl)-1H-pyrazol-3-yl]amino}pyrazine-2-carbo nitrile]	< 30	excellent cell growth suppression effect that is equivalent to that of prexasertib	42	more potent effect of suppressing CHK1 activity than prexasertib	
COc1cncc(OCC2(C)CNC2)c1-c1cc(Nc2cnc(C#N)cn2)n[nH]1 [Example 25, 5-[(5-{3-methoxy-5-[(3-methylazetidin-3-yl)methoxy]pyridin-4-yl}-1H-pyrazol-3-yl)amino]pyrazine-2-carbonitrile]	< 30	excellent cell growth suppression effect that is equivalent to that of prexasertib	< 5		
CNCCCOc1cncc(OC)c1-c1cc(Nc2cnc(C#N)cn2)n[nH]1 [Example 31, 5-[(5-{3-methoxy-5-[3-(methylamino)propoxy]pyridin-4-yl}-1H-pyrazol-3-yl)amino]pyrazine-2-carbonitrile]	< 30	excellent cell growth suppression effect that is equivalent to that of prexasertib	< 5		
N#Cc1cnc(Nc2cc(-c3c(OCF)cncc3OCCCN)[nH]n2)cn1 [Example 24, 5-({5-[3-(3-aminopropoxy)-5-(fluoromethoxy)pyridin-4-yl]-1H-pyrazol-3-yl}amino)pyrazine-2-carbonitrile]	300 to 1000		23	more potent effect of suppressing CHK1 activity than prexasertib	
COc1nccc(OCC2(O)CNC2)c1-c1cc(Nc2cnc(C#N)cn2)n[nH]1 [Example 7, 5-[(5-{4-[(3-hydroxyazetidin-3-yl)methoxy]-2-methoxypyridin-3-yl}-1H-pyrazol-3-yl)amino]pyrazine-2-carbonitrile]	30 to 100		29	more potent effect of suppressing CHK1 activity than prexasertib	
COc1cc(Cl)nc(OCCCN)c1-c1cc(Nc2cnc(C#N)cn2)n[nH]1 [Example 2, 5-({5-[2-(3-aminopropoxy)-6-chloro-4-methoxypyridin-3-yl]-1H-pyrazol-3-yl}amino)pyrazine-2-carbonitrile]	30 to 100		31	more potent effect of suppressing CHK1 activity than prexasertib	
COc1cncc(O[C@H]2C[C@H](N)[C@H]3C[C@H]32)c1-c1cc(Nc2cnc(C#N)cn2)n[nH]1 [Example 36, 5-{[5-(3-{[(1R,2S,4S,5S)-4-aminobicyclo[3.1.0]hexan-2-yl]oxy}-5-methoxypyridin-4-yl)-1H-pyrazol-3-yl]amino}pyrazine-2-carbonitrile]	< 30	excellent cell growth suppression effect that is equivalent to that of prexasertib	< 5		
COc1nccc(OCCCN)c1-c1cc(Nc2cnc(C#N)cn2)n[nH]1 [Example 4, 5-({5-[4-(3-aminopropoxy)-2-methoxypyridin-3-yl]-1H-pyrazol-3-yl}amino)pyrazine-2-carbonitrile]	< 30	excellent cell growth suppression effect that is equivalent to that of prexasertib	25	more potent effect of suppressing CHK1 activity than prexasertib	
COc1ncnc(OCC2(CN)CC2)c1-c1cc(Nc2cnc(C#N)cn2)n[nH]1 [Example 23, 5-{[5-(4-{[1-(aminomethyl)cyclopropyl]methoxy}-6-methoxypyrimidin-yl)-1H-pyrazol-3-yl]amino}pyrazine-2-carbonitrile]	< 30		< 5		
COc1cncc(OCC[C@H](C)N)c1-c1cc(Nc2cnc(C#N)cn2)n[nH]1 [Example 10, 5-[(5-{3-[(3S)-3-aminobutoxy]-5-methoxypyridin-4-yl}-1H-pyrazol-3-yl)amino]pyrazine-2-carbonitrile]	30 to 100		20	more potent effect of suppressing CHK1 activity than prexasertib	
COc1cncc(O[C@H](C)C2CNC2)c1-c1cc(Nc2cnc(C#N)cn2)n[nH]1 [Example 33, 5-[(5-{3-[(1R)-1-(azetidin-3-yl)ethoxy]-5-methoxypyridin-4-yl}-1H-pyrazol-3-yl)amino]pyrazine-2-carbonitrile]	< 30	excellent cell growth suppression effect that is equivalent to that of prexasertib	< 5		
COc1ncnc(OCCCN)c1-c1cc(Nc2cnc(C#N)cn2)n[nH]1 [Example 17, 5-({5-[4-(3-aminopropoxy)-6-methoxypyrimidin-5-yl]-1H-pyrazol-3-yl}amino)pyrazine-2-carbonitrile]	< 30	excellent cell growth suppression effect that is equivalent to that of prexasertib	24	more potent effect of suppressing CHK1 activity than prexasertib	0.3
COc1cncc(OCC2CNC2)c1-c1cc(Nc2cnc(C#N)cn2)n[nH]1 [Example 18, 5-({5-[3-(azetidin-3-yl)methoxy-5-methoxypyridin-4-yl]-1H-pyrazol-3-yl}amino)pyrazine-2-carbonitrile]	30 to 100		< 5	more potent effect of suppressing CHK1 activity than prexasertib	
COc1cncc(OC[C@H](C)CN)c1-c1cc(Nc2cnc(C#N)cn2)n[nH]1 [Example 28]	< 30		< 5		
COc1cncc(OCC2(F)CNC2)c1-c1cc(Nc2cnc(C#N)cn2)n[nH]1 [Example 5, 5-[(5-{3-[(3-fluoroazetidin-3-yl)methoxy]-5-methoxypyridin-4-yl}-1H-pyrazol-3-yl)amino]pyrazine-2-carbonitrile]	< 30		15		
COc1cncc(OC[C@@H](C)CN)c1-c1cc(Nc2cnc(C#N)cn2)n[nH]1 [Example 27]	< 30		< 5		
COc1cncc(O[C@@H]2CC[C@@H](N)C2)c1-c1cc(Nc2cnc(C#N)cn2)n[nH]1 [Example 32, 5-{[5-(3-{[(1R,3R)-3-aminocyclopentyl]oxy}-5-methoxypyridin-4-yl)-1H-pyrazol-3-yl]amino}pyrazine-2-carbonitrile]	< 30	excellent cell growth suppression effect that is equivalent to that of prexasertib			
